The text below walks through data of patent US10508085B2, “Compounds and methods for IDO and TDO modulation, and indications therefor” (Plexxikon Inc., priority 2016, dated 2019).

The target in assay [1] is T1, human IDO (IDO1-expressing HEK293 cells) (Homo sapiens, UniProt P14902).
T1 construct: expressed in transfected cells
In words: Cell based kynurenine assay, IDO1-expressing HEK293 cell clones. Conditions: IDO1-expressing HEK293 cells, geometric mean, read-out: HEK293 IDO1 Kynurenine GMean IC50 (μM) (Cellular Assay). The method, boiled down:
(§1)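 HEK293 stable clones (hIDO1 or hTDO, CMV-driven; G418-selected); 2.5×10^4 cells/well; compound serial dilution, 24 h, 37 °C, 5% CO2; supernatant kynurenine; IC50 by nonlinear fit.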

Assay [2] addresses T2, Human Indoleamine 2,3-dioxygenase (IDO) (Homo sapiens, UniProt P14902).
T2 construct: His tag (N); made in house; host or cells: E. coli
As to the kind of experiment: Human IDO enzymatic assay (kynurenine level). The class given is biochemical. Conditions: 6 nM IDO, 10 μM L-Trp; geometric mean; read-out: IDO1 GMean: IC50 (μM) (Biochemical Assay). The method, boiled down:
(§2)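 Compound is mixed with His-tagged enzyme from E. coli in pH 6.5 phosphate buffer containing ascorbate, methylene blue and catalase, at room temperature. IDO uses 6 nM enzyme and 10 μM Trp for 20 min. TDO uses 1 nM enzyme and 350 μM Trp for 70 min. TCA stops the reaction, and IC50 is derived from kynurenine levels.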

Assay [3] has as its target T3, Human Tryptophan 2,3-dioxygenase (TDO) (Homo sapiens, UniProt P48775).
T3 construct: His tag (N); made in house; host or cells: E. coli
As to the kind of experiment: Human TDO enzymatic assay (kynurenine level). Conditions: 1 nM TDO, 350 μM L-Trp; geometric mean; read-out: TDO GMean: IC50 (μM) (Biochemical Assay). Format: biochemical. The method, boiled down: as §2

Assay [4] concerns the target T4, human TDO (TDO-expressing HEK293 cells) (Homo sapiens, UniProt P48775).
T4 construct: expressed in transfected cells
In words: Cell based kynurenine assay, TDO-expressing HEK293 cell clones. Conditions: TDO-expressing HEK293 cells, geometric mean, read-out: HEK293 TDO Kynurenine GMean IC50 (μM) (Cellular Assay). The method, boiled down: as §1

Where two headings read alike, the source gives them in different places. Some results are limits rather than exact numbers.

T3 sequence (P48775 whole entry): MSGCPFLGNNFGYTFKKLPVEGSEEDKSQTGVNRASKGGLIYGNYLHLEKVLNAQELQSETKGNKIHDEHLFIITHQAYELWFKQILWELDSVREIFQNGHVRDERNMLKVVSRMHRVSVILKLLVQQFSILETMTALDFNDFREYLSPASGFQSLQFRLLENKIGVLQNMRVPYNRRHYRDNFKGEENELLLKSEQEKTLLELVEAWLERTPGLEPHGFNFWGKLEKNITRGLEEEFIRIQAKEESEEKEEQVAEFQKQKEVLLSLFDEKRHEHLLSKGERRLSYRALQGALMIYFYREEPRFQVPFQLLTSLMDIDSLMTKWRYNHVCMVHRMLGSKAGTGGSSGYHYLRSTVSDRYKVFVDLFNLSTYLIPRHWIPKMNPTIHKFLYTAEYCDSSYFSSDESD
T4 sequence (P48775 whole entry): as above
T1 sequence (P14902 whole entry): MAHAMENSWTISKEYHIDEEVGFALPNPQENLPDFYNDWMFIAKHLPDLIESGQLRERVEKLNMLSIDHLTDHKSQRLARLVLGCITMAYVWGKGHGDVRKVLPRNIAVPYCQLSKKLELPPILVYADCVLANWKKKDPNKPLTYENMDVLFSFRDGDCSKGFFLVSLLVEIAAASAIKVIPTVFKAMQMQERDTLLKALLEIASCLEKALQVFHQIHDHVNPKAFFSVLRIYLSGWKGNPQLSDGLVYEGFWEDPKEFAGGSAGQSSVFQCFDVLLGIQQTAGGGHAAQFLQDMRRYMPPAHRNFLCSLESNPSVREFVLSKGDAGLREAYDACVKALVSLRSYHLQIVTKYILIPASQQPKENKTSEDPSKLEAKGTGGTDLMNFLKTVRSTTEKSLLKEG
T2 sequence (P14902 whole entry): as above

In the case of `NC(=O)N1CCC(C2(C(O)c3cc(Cl)cc4cn[nH]c34)CC2)CC1` (stereo not shown) [Compound P-0156, 4-(1-((5-chloro-1H-indazol-7-yl)(hydroxy)methyl)cyclopropyl)piperidine-1-carboxamide], the IC50 in assay [1] (24 hours incubation), in assay [2], in assay [3] and in assay [4] (24 hours incubation) was 0.0001 to 10 µM throughout.
Turning to `COC(=O)N1CCC(C(F)(F)C(O)c2c(F)c(Cl)cc3cn[nH]c23)CC1` (stereo not shown) [Compound P-0342, methyl 4-(2-(5-chloro-6-fluoro-1H-indazol-7-yl)-1,1-difluoro-2-hydroxyethyl) piperidine-1-carboxylate], the IC50 in assay [1] (24 hours incubation), in assay [2], in assay [3] and in assay [4] (24 hours incubation) was 0.0001 to 10 µM throughout.
For the compound `CS(=O)(=O)N1CC2CCC(C1)C2CC(O)c1cc(Cl)cc2cn[nH]c12` (stereo not shown) [Compound P-0282, 1-(5-chloro-1H-indazol-7-yl)-2-(3-(methylsulfonyl)-3-azabicyclo[3.2.1]octan-8-yl)ethan-1-ol], the half-maximal inhibitory concentration (IC50) in assay [1] (24 hours incubation), in assay [2], in assay [3] and in assay [4] (24 hours incubation) was 0.0001 to 10 µM throughout.
`CC(C)(C1CCN(C(=O)Cc2ccc(Cl)c(F)c2)CC1)[C@H](O)c1cc(Cl)cc2cn[nH]c12` [Compound P-0518, (S)-1-(4-(1-(5-chloro-1H-indazol-7-yl)-1-hydroxy-2-methylpropan-2-yl)piperidin-1-yl)-2-(4-chloro-3-fluorophenyl) ethan-1-one]: the IC50 in assay [1] (24 hours), in assay [2], in assay [3] and in assay [4] (24 hours) was 0.0001 to 10 µM each time.
Consider `CC(C)CC(=O)N1CCC(C(C)(C)[C@H](O)c2cc(Cl)cc3cn[nH]c23)CC1` [Compound P-0545, (S)-1-(4-(1-(5-chloro-1H-indazol-7-yl)-1-hydroxy-2-methylpropan-2-yl)piperidin-1-y1)-3-methylbutan-1-one], for which the IC50 in assay [1] (24 hours), in assay [2], in assay [3] and in assay [4] (24 hours) was 0.0001 to 10 µM throughout.
As to `O=C(NCC1(O)CC1)N1CCC(C(F)(F)C(O)c2cc(Cl)cc3cn[nH]c23)CC1` (stereo not shown) [Compound P-0465, 4-(2-(5-chloro-1H-indazol-7-yl)-1,1-difluoro-2-hydroxyethyl)-N-((1-hydroxycyclopropyl)methyl)piperidine-1-carboxamide], the IC50 in assay [1] (24 hours), in assay [2], in assay [3] and in assay [4] (24 hours) was 0.0001 to 10 µM in each case.
With `CC(C)(C)OC(=O)N1CCC(C(C)(C)C(O)c2c(F)c(Cl)cc3cn[nH]c23)CC1` (stereo not shown) [Compound P-0370, tert-butyl 4-(1-(5-chloro-6-fluoro-1H-indazol-7-yl)-1-hydroxy-2-methylpropan-2-yl)piperidine-1-carboxylate], the IC50 in assay [1] (24 hours incubation), in assay [2], in assay [3] and in assay [4] (24 hours incubation) was 0.0001 to 10 µM throughout.
In the case of `CC(C)(C)C1CC(O)(c2cc(Cl)cc3cn[nH]c23)C1` (stereo not shown) [Compound P-0214, 3-(tert-butyl)-1-(5-chloro-1H-indazol-7-yl)cyclobutan-1-ol], the IC50 in assay [1] (24 hours incubation), in assay [2], in assay [3] and in assay [4] (24 hours incubation) was 0.0001 to 10 µM each time.
Regarding `O=C(Nc1cccc(C(F)(F)F)c1)N1CCC(C(F)(F)C(O)c2cc(Cl)cc3cn[nH]c23)CC1` (stereo not shown) [Compound P-0154, 4-(2-(5-chloro-1H-indazol-7-yl)-1,1-difluoro-2-hydroxyethyl)-N-(3-(trifluoromethyl)phenyl)piperidine-1-carboxamide], the IC50 in assay [1] (24 hours incubation), in assay [2], in assay [3] and in assay [4] (24 hours incubation) was 0.0001 to 10 µM in each case.
For `CC(C)(C1CCN(C(=O)c2ccc(C(F)(F)F)nc2)CC1)[C@H](O)c1cc(Cl)cc2cn[nH]c12` [Compound P-0537, (S)-(4-(1-(5-chloro-1H-indazol-7-yl)-1-hydroxy-2-methylpropan-2-yl)piperidin-1-yl)(6-(trifluoromethyl)pyridin-3-yl)methanone], the IC50 in assay [1] (24 hours), in assay [2], in assay [3] and in assay [4] (24 hours) was 0.0001 to 10 µM in each case.
Turning to `CC(C)(C1CCN(C(=O)NC2CCC2)CC1)C(O)c1cc(Cl)cc2cn[nH]c12` (stereo not shown) [Compound P-0387, 4-(1-(5-chloro-1H-indazol-7-yl)-1-hydroxy-2-methylpropan-2-yl)-N-cyclobutylpiperidine-1-carboxamide], the IC50 in assay [1] (24 hours incubation), in assay [2], in assay [3] and in assay [4] (24 hours incubation) was 0.0001 to 10 µM each time.
Take `COC(=O)C12CCC(C(O)c3cc(Cl)cc4cn[nH]c34)(CC1)CC2` (stereo not shown) [Compound P-0326, methyl 4-((5-chloro-1H-indazol-7-yl)(hydroxy)methyl)bicyclo [2.2.2]octane-1-carboxylate]: the half-inhibitory concentration (IC50) in assay [1] (24 hours incubation), in assay [2], in assay [3] and in assay [4] (24 hours incubation) was 0.0001 to 10 µM throughout.
For the compound `CC(C)(C1CCN(C(=O)c2ccccc2C(F)(F)F)CC1)C(O)c1cc(Cl)cc2cn[nH]c12` (stereo not shown) [Compound P-0366, (4-(1-(5-chloro-1H-indazol-7-yl)-1-hydroxy-2-methylpropan-2-yl)piperidin-1-yl)(2-(trifluoromethyl)phenyl)methanone], the half-inhibitory concentration (IC50) in assay [1] (24 hours incubation), in assay [2], in assay [3] and in assay [4] (24 hours incubation) was 0.0001 to 10 µM each time.
For `O=S1(=O)CC(O)(c2cc(Cl)cc3cn[nH]c23)C1` [Compound P-0189, 3-(5-chloro-1H-indazol-7-yl)-3-hydroxythietane 1,1-dioxide], the IC50 (usually the midpoint of a concentration-inhibition curve) in assay [1] (24 hours incubation) is > 10 µM; in assay [2], > 200 µM; in assay [3], > 200 µM; in assay [4] (24 hours incubation), 0.0001 to 10 µM.
With `CC1(C)CC(C(O)c2cc(Cl)cc3cn[nH]c23)C1` (stereo not shown) [Compound P-0196, (5-chloro-1H-indazol-7-yl)(3,3-dimethylcyclobutyl)methanol], the IC50 in assay [1] (24 hours incubation), in assay [2], in assay [3] and in assay [4] (24 hours incubation) was 0.0001 to 10 µM throughout.
For the compound `CCOC(=O)NC(=O)N1CCC(C(C)(C)C(O)c2cc(Cl)cc3cn[nH]c23)CC1` (stereo not shown) [Compound P-0405, ethyl (4-(1-(5-chloro-1H-indazol-7-yl)-1-hydroxy-2-methylpropan-2-yl)piperidine-1-carbonyl)carbamate], the IC50 in assay [1] (24 hours incubation), in assay [2], in assay [3] and in assay [4] (24 hours incubation) was 0.0001 to 10 µM in each case.
As for `OC(c1cc(Cl)cc2cn[nH]c12)C(F)(F)C1(O)CCC1` (stereo not shown) [Compound P-0289, 1-(2-(5-chloro-1H-indazol-7-yl)-1,1-difluoro-2-hydroxyethyl)cyclobutan-1-ol], the IC50 in assay [1] (24 hours incubation), in assay [2], in assay [3] and in assay [4] (24 hours incubation) was 0.0001 to 10 µM each time.
For the compound `CC(C)(C1CCN(C(=O)c2ccccc2)CC1)C(O)c1c(F)c(Cl)cc2cn[nH]c12` (stereo not shown) [Compound P-0417, (4-(1-(5-chloro-6-fluoro-1H-indazol-7-yl)-1-hydroxy-2-methylpropan-2-yl)piperidin-1-yl)(phenyl) methanone], the IC50 in assay [1] (24 hours), in assay [2], in assay [3] and in assay [4] (24 hours) was 0.0001 to 10 µM each time.
As for `CCOC(=O)N1CCC(C(C)(C)[C@H](O)c2cc(Cl)cc3cn[nH]c23)CC1` [Compound P-0541, ethyl (S)-4-(1-(5-chloro-1H-indazol-7-yl)-1-hydroxy-2-methylpropan-2-yl)piperidine-1-carboxylate], the IC50 in assay [1] (24 hours), in assay [2], in assay [3] and in assay [4] (24 hours) was 0.0001 to 10 µM each time.
Consider `CC(C)(C1CCN(C(=O)Nc2cccc(C#N)c2)CC1)[C@H](O)c1cc(Cl)cc2cn[nH]c12` [Compound P-0569, (S)-4-(1-(5-chloro-1H-indazol-7-yl)-1-hydroxy-2-methylpropan-2-yl)-N-(3-cyanophenyl) piperidine-1-carboxamide], for which the 50% inhibitory concentration (IC50) in assay [1] (24 hours), in assay [2], in assay [3] and in assay [4] (24 hours) was 0.0001 to 10 µM each time.
With `CC(C)(C1CCN(C(=O)Nc2cccc(C#N)c2)CC1)C(O)c1cc(Cl)cc2cn[nH]c12` (stereo not shown) [Compound P-0360, 4-(1-(5-chloro-1H-indazol-7-yl)-1-hydroxy-2-methylpropan-2-yl)-N-(3-cyanophenyl) piperidine-1-carboxamide], the half-maximal inhibitory concentration (IC50) in assay [1] (24 hours incubation), in assay [2], in assay [3] and in assay [4] (24 hours incubation) was 0.0001 to 10 µM in each case.
In the case of `OC(CCC1CCCCC1)c1cc(Cl)cc2cn[nH]c12` (stereo not drawn) [Compound P-0009, 1-(5-chloro-1H-indazol-7-yl)-3-cyclohexylpropan-l-ol], the IC50 in assay [1] (24 hours incubation) is 0.0001 to 10 µM; in assay [2], 0.0001 to 10 µM; in assay [3], 0.0001 to 10 µM; in assay [4] (24 hours incubation) it was > 10 µM.
